Here are results for one molecule from patent US20100004272A1, “Modulators of metabolism and the treatment of disorders related thereto” (ARENA PHARMACEUTICALS, INC., priority 2006, published 2010).

For series [1], the target named is T1, RUP3 receptor (Mus musculus, UniProt Q7TQP3).
T1 construct: expressed in transfected cells; host or cells: melanophores, electroporated
T1 sequence (Q7TQP3 1-335): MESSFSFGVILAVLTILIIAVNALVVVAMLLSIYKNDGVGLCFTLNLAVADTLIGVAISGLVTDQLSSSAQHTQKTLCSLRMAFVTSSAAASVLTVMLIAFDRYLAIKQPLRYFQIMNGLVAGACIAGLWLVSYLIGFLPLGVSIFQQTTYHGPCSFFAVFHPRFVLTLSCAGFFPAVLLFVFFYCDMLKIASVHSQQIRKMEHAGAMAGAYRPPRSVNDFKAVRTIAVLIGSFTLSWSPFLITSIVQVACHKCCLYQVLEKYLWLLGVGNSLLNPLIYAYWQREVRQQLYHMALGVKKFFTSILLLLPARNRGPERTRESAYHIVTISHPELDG
Kind of series: RUP3 dose response in melanophores (mouse RUP3). In kind it is cell-based. The method, then:
(§1) Melanophores are maintained in culture as reported by Potenza, M. N. and Lerner, M. R., in Pigment Cell Research, Vol. 5, 372-378, 1992 and transfected with the RUP3 expression vector (pCMV) using electroporation. Following electroporation, the transfected cells are plated into 96 well plates for the assay. The cells are then allowed to grow for 48 hours in order to both recover from the electroporation procedure and attain maximal receptor expression levels. On the assay day, the growth medium on the cells is replaced with serum-free buffer containing 10 nM melatonin. The melatonin acts via an endogenous Gi-coupled GPCR in the melanophores to lower intracellular cAMP levels. In response to lowered cAMP levels, the melanophores translocate their pigment to the center of the cell. The net effect of this is a significant decrease in the absorbance reading of the cell monolayer in the well, measured at […]. After a 1-hour incubation in melatonin, the cells become completely pigment-aggregated. At this point a baseline absorbance reading is collected. Serial dilutions of test compounds are then added to the plate and compounds that stimulate RUP3 produce increases in intracellular cAMP levels. […] The measured increase in absorbance compared to the baseline reading allows one to quantitate the degree of receptor stimulation and plot a dose-response curve.

For series [2], the target named is T2, RUP3 receptor (Rattus norvegicus, UniProt Q7TQN8).
T2 construct: expressed in transfected cells; host or cells: melanophores, electroporated
T2 sequence (Q7TQN8 1-468): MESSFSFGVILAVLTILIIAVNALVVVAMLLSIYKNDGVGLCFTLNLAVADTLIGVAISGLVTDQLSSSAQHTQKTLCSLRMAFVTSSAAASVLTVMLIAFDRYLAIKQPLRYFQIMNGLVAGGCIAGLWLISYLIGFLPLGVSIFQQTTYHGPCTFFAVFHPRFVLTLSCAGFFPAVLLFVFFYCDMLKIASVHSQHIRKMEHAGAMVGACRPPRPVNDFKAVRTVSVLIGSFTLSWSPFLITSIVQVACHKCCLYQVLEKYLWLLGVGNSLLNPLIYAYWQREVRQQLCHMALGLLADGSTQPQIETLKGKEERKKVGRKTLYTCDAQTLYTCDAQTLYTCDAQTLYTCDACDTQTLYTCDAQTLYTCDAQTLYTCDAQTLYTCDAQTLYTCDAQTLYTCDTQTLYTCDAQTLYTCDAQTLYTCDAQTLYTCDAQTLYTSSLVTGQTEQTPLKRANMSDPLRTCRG
In words: RUP3 dose response in melanophores (rat RUP3). In kind it is cell-based. The method, then: as §1

Series [3] is described as follows: Rat dose-range PK study (dose escalation pharmacokinetics). Particulars: PO 3, 30, 300 mg/Kg, FIG. 1. The class given is in vivo. The method, then: Male SD rats (250-300 g) were purchased from Charles River Laboratory; upon receipt, animals were placed under light-dark cycle (6:30 am-6:30 pm lights on) They were allowed ad libitum access to water and 4 pieces of food daily (Purina Meals Rodent Diet, Product Number 5001).
Compound formulations were prepared as following: The IV injection formulation was prepared in 20% hydroxypropyl-beta-cyclodextrin with concentration of 0.667 mg/mL. The PO formulations were prepared in 0.5% hydroxypropyl methylcellulose with concentrations of […]. The dosing volume for IV injection was 3 mL/Kg and for PO administration was 10 mL/Kg. Four rats were used for each dose group. […]
Plasma samples were prepared as follows. […] Calibration standards were typically prepared in the range of 2.0 ng/mL to 10 μg/mL with linear regression for quantitation. […]
Results were calculated by noncompartmental analysis using WinNonlin Pro version 3.1 based on plasma concentration-time profiles for individual animals. Plasma levels were determined as described above and the oral and intravenous area under the concentration vs. time curve (AUC was calculated using the linear trapezoidal rule up to the last measurable concentration and was then extrapolated to infinity) were compared to determine the % bioavailability (% oF) by the following formula: Dose (IV)*AUC (oral)/Dose (oral)*AUC (IV). […]

The target of series [4] is T3, RUP3 receptor (Homo sapiens, UniProt Q8TDV5).
T3 construct: expressed in transfected cells; host or cells: melanophores (as per Potenza and Lerner 1992), electroporated
T3 sequence (Q8TDV5 1-335): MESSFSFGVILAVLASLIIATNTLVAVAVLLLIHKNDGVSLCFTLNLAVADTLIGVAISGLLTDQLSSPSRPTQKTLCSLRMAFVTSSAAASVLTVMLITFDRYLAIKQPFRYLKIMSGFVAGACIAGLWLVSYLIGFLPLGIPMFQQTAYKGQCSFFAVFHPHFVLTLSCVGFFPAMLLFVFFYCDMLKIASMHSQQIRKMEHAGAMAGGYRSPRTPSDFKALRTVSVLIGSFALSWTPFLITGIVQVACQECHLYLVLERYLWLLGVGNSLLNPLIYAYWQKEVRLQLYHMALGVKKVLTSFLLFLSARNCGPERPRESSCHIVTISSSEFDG
Kind of series: RUP3 dose response in melanophores (human RUP3). The class given is cell-based. On the procedure:
as §1

Series [5] deals with T4, RUP3 receptor (Canis lupus familiaris, UniProt A0A8I3QZL6).
T4 sequence (A0A8I3QZL6 1-335): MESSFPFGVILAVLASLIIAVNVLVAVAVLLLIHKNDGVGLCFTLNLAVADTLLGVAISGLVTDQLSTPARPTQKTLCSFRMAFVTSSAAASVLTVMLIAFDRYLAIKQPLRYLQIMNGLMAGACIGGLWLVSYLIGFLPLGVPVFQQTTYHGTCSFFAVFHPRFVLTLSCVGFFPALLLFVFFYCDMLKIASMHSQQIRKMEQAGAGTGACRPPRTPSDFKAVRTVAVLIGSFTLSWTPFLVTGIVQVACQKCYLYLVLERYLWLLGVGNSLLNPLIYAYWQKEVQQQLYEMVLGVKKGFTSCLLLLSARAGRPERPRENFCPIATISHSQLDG
In words: RUP3 dose response in melanophores (dog RUP3). The class given is cell-based. On the procedure: as §1

Series [6] has as its system Male Sprague Dawley rats. In words: Oral glucose tolerance test (oGTT) in rats. In kind it is in vivo, rat. The following applies: fasted male Sprague Dawley rats, p.o. 30 min before dextrose 3 g/kg, doses 0.3, 3 or 30 mg/kg (dose of this value not stated), mean of six animals. On the procedure:
General Procedure—Oral Glucose tolerance test (oGTT)
Male Sprague Dawley rats (Harlan, San Diego, Calif.) weighing approximately 350-375 g were fasted for 16 hours and randomly grouped (n=6) to receive a RUP3 agonist at 0.3, 3 or 30 mg/kg. Compounds were delivered orally via a gavage needle (p.o., volume 2 mL/kg). At time 0, levels of blood glucose were assessed using a glucometer (Accu-Chek Advantage, Roche Diagnostics), and rats were administered either vehicle (20% hydroxypropyl-beta-cyclodextrin) or test compound. Thirty minutes after administration of test compound, levels of blood glucose were again assessed, and rats were administered dextrose orally at a dose of 3 g/kg. Blood glucose measurements were then taken 30 min, 60 min, and 120 min after this time.

As for `Cc1nc(S(C)(=O)=O)ccc1Nc1ncnc(OC2CCN(C(=O)OC(C)C)CC2)c1C` [Formula (I), 4-[6-(6-methanesulfonyl-2-methyl-pyridin-3-ylamino)-5-methyl-pyrimidin-4-yloxy]-piperidine-1-carboxylic acid isopropyl ester], the EC50 (usually the concentration that produces a half-maximal response) was found to be 43 nM in series [1], 42 nM in series [2], 2 nM in series [4] and 8 nM in series [5]. Besides, the “dose escalation pharmacokinetics (AUC vs. dose linearity)” value in series [3] is recorded as “essentially linear dose escalation pharmacokinetics”. The “mean percent inhibition of glucose excursion” value in series [6] came to 38%.
